Literature values as cited in patent US20230338375A1, “SUBSTITUTED PYRIDAZINONES FOR USE IN THE TREATMENT OF NEUROMUSCULAR DISEASES” (Edgewise Therapeutics, Inc., priority 2020, published 2023).

Test system: embryos from zebrafish model of DMD
Settings: Li and Arner, PLoSONE, 2015

Cc1ccc(S(=O)(=O)NCc2ccccc2)cc1 [BTS, N-benzyl-p-tolyl-sulfonamide]
protection from pathological muscle derangement: protect muscles from pathological muscle derangement
